From patent US20220306695A1, “COMPSTATIN ANALOGUES AND THEIR MEDICAL USES” (priority 2019, published 2022) come the findings set out here.

The nature of one data set: in vivo. As to conditions: male, cynomolgus monkey, sc, 1840 nmol/kg, t½. On the set-up: species or system Cynomolgus monkeys (Macaca fascicularis). As for the experimental part:
Healthy male Cynomolgus monkeys (Macaca fascicularis) received single subcutaneous administrations of each test substance. Compounds were formulated in 20 mM phosphate adjusted with NaOH to pH 7.5 and mannitol for isotonicity and dosed at 1840 nmol/kg. Blood was collected from a femoral vein from each animal at the following times: Pre-dose, 1, 2, 4, 8, 24, 48, 72, 96 and 120 h (10 sampling times). Blood was collected into serum separation tubes and allowed to clot at room temperature. The tubes were centrifuged and resulting serum was aliquoted and snap-frozen over dry-ice and stored at nominally −80° C. until analysis. All NHP studies were performed in accordance with animal welfare laws and regulations, including approval of the study by a local ethical review process.
In order to assess pharmacokinetic half-life (t %/), serum samples isolated from non-human primates at specific time points after dosing were analysed for total drug compound after sample preparation by solid phase extraction (SPE) and liquid chromatography mass spectrometry (LC-MS/MS) using analogue internal standard. Single measurement of serum concentrations were used for calculation of the pharmacokinetic parameters using the non-compartmental approach in Phoenix WinNonlin 6.3. Plasma terminal elimination half-life (ty) was determined as In(2)/λz where λz is the magnitude of the slope of the log linear regression of the log concentration versus time profile during the terminal phase.

Data set [1] deals with classical complement pathway. The data set can be described thus: In vitro haemolysis assay (inhibition of classical complement pathway). Type of data set: cell-based, human. In a few lines: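 Serially diluted compound (9 points) was preincubated 15 min at room temperature with diluted human serum, titrated per batch to give 70-90% maximal haemolysis, in Tris/casein buffer pH 7.4 with Mg2+/Ca2+. Antibody-sensitized sheep erythrocytes were then added for 30 min at 37° C, and the reaction was stopped with EDTA. Haemolysis was read at A405, with IC50 from 4PL fit.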

The nature of data set [2]: Solubility test at 10 mg/mL (visual inspection and light scattering). Type of data set: physicochemical. Particulars: for Solubility, Condition 1 Acetate pH 4: 10 mg/mL compound in 100 mM acetate pH 4; for Solubility, Condition 2 Acetate pH 5: 10 mg/mL compound in 100 mM acetate pH 5; for Solubility, Condition 3 Phosphate pH 6: 10 mg/mL compound in 100 mM phosphate pH 6; for Solubility, Condition 4 Phosphate pH 7: 10 mg/mL compound in 100 mM phosphate pH 7; for Solubility, Condition 5 Phosphate pH 7.5: 10 mg/mL compound in 100 mM phosphate pH 7.5.

The target in the next data set is T1, Human C3 (Homo sapiens, UniProt P01024).
T1 construct: purchased Complement tech A1 13c (so in the source)
Description: Affinity measurement by surface plasmon resonance (SPR) with immobilized C3. Type of data set: binding. As to conditions: Table 7; immobilized C3, 25° C., pH 7.4. As for the experimental part: Surface plasmon resonance (SPR) was used to characterize peptides with respect to their binding affinity (Kd) for C3. Human C3 (Complement tech cat #A1 13c) was immobilised on individual flow cells of CM5 sensor chips (GE Healthcare) using standard amine coupling to a density of approximately 3000 resonance units (RU) in a buffer consisting of 10 mM phosphate pH 7.4, 150 mM NaCl, 0.05% Tween20. For interaction experiments a multi-cycle experiment approach was used and performed using either a Biacore™ T200 or Biacore™ X100 instrument (GE Healthcare) at 25° C. Peptides were injected in increasing concentration series (5-8 different concentrations) for 60-120 s at a flow rate of 30 μL/min in a buffer consisting of 10 mM Tris buffer at pH 7.4, with 150 mM NaCl and 0.05% Tween20. This was followed by a dissociation period for up to 10 min. […] Sensorgrams were double-referenced (reference surface, blanks) prior to analysis of the kinetic profiles by globally fitting data to a 1:1 Langmuir binding model to obtain association and dissociation rates for calculation of the equilibrium dissociation constant Kd. Each peptide was tested at in at least 2 independent experiments.
A general note: Surface plasmon resonance follows binding to a sensor surface in real time, without labels.

Setting [3] is: Table 3, human serum, sensitized sheep red blood cells, read-out: IC50[nM], in vitro analysis of inhibition of hemolysis.

The structures appear in SMILES notation. Read-outs that look alike come from different tables or passages of the source. Starred links: 1 amine or outer side, 2 acyl side, 3 side chain; linkers in the order of their positions; H or OH if unused. Positions of bridges follow the written chain, without caps; N, C: chain ends. Non-standard residues stand in square brackets, D forms with d. Residues, ends and D or L forms follow the SMILES beside them. Groups on a side chain read outwards from the residue. *: point of attachment. Trp(1-Me) = Cn1cc(C[C@H](N)C(=O)O)c2ccccc21; Abu(4-yl) = O=C([C@H](CC[*:3])N[*:1])[*:2]; C18 diacid = O=C(O)CCCCCCCCCCCCCCCCC(=O)*; γGlu = O=C(O)[C@H](CCC(=O)[*:2])N[*:1]; AEEA = NCCOCCOCC(=O)O; Sar = CNCC(=O)O

In the case of `CC[C@H](C)[C@@H]1NC(=O)[C@@H](NC(=O)[C@H](Cc2ccccc2)NC(=O)[C@H](CCC(=O)O)NC(=O)[C@H](CO)NC(C)=O)CSSC[C@@H](C(=O)N(C)CC(=O)N[C@@H](CCC(=O)O)C(=O)NCC(=O)N[C@@H](CCC(=O)O)C(=O)NCCOCCOCC(=O)NCCOCCOCC(=O)N[C@@H](CCCCNC(=O)CC[C@H](NC(=O)CNC(=O)CC[C@H](NC(=O)CCCCCCCCCCCCCCCCC(=O)O)C(=O)O)C(=O)O)C(N)=O)NC(=O)[C@H](CCCNC(=N)N)NC(=O)[C@H](Cc2c[nH]cn2)NC(=O)[C@H](CCC(=O)O)NC(=O)CNC(=O)[C@H](Cc2c[nH]c3ccccc23)NC(=O)[C@H](CCC(=O)O)NC(=O)[C@H](CCC(N)=O)NC(=O)[C@H](Cc2cn(C)c3ccccc23)NC1=O` [Compound 124] (Ac-SEFCI[Trp(1-Me)]QEWGEHRC[Sar]EGE[AEEA][AEEA]K([γGlu-Gly-γGlu-C18 diacid])-NH2; disulfide 4-14), in the data set “in vivo”, the half-life was 4.67 days. The IC50 in data set [1] (setting [3]) is < 100 nM.

Turning to `CC[C@H](C)[C@@H]1NC(=O)[C@@H](NC(=O)[C@H](Cc2ccccc2)NC(=O)[C@H](CCC(=O)O)NC(=O)[C@H](CO)NC(C)=O)CSCC[C@@H](C(=O)N(C)CC(=O)N[C@@H](CCC(=O)O)C(=O)NCC(=O)N[C@@H](CCC(=O)O)C(=O)NCCOCCOCC(=O)NCCOCCOCC(=O)N[C@@H](CCCCNC(=O)CC[C@H](NC(=O)CNC(=O)CC[C@H](NC(=O)CCCCCCCCCCCCCCCCC(=O)O)C(=O)O)C(=O)O)C(N)=O)NC(=O)[C@H](CCCNC(=N)N)NC(=O)[C@H](Cc2c[nH]cn2)NC(=O)[C@H](CCC(=O)O)NC(=O)CNC(=O)[C@H](Cc2c[nH]c3ccccc23)NC(=O)[C@H](CC(=O)O)NC(=O)[C@H](CCC(N)=O)NC(=O)[C@H](Cc2cn(C)c3ccccc23)NC1=O` [Compound 146, Ac-SEFA(1)I[1-Me-Trp]QDWGEHRhC(1)[Sar]EGE[Peg3][Peg3]-K([17-carboxy-heptadecanoyl][γGlu]G[γGlu])-NH2] (Ac-SEFCI[Trp(1-Me)]QDWGEHR[Abu(4-yl)][Sar]EGE[AEEA][AEEA]K([γGlu-Gly-γGlu-C18 diacid])-NH2; thioether 4-14), in “in vivo”, the half-life was 4.88 days. The IC50 in data set [1] (setting [3]) is < 100 nM.

For `CC[C@H](C)[C@@H]1NC(=O)[C@@H](NC(=O)[C@H](Cc2ccc(O)cc2)NC(=O)[C@H](CCC(=O)O)NC(=O)[C@H](CO)NC(C)=O)CSSC[C@@H](C(=O)N(C)CC(=O)N[C@@H](CCC(=O)O)C(=O)NCC(=O)N[C@@H](C)C(=O)N[C@@H](CCCCNC(=O)COCCOCCNC(=O)CC[C@H](NC(=O)COCCOCCNC(=O)CNC(=O)CC[C@H](NC(=O)CCCCCCCCCCCCCCCCC(=O)O)C(=O)O)C(=O)O)C(N)=O)NC(=O)[C@H](CCCNC(=N)N)NC(=O)[C@H](Cc2c[nH]cn2)NC(=O)[C@H](CCC(=O)O)NC(=O)CNC(=O)[C@H](Cc2c[nH]c3ccccc23)NC(=O)[C@H](CCC(=O)O)NC(=O)[C@H](CCC(N)=O)NC(=O)[C@H](Cc2cn(C)c3ccccc23)NC1=O` [Compound 122] (Ac-SEYCI[Trp(1-Me)]QEWGEHRC[Sar]EGAK([AEEA-γGlu-AEEA-Gly-γGlu-C18 diacid])-NH2; disulfide 4-14), in “in vivo”, the half-life is 5.29 days. Moreover, the IC50 in data set [1] (setting [3]) was < 500 nM.

Turning to `CC[C@H](C)[C@@H]1NC(=O)[C@@H](NC(=O)[C@H](Cc2ccccc2)NC(=O)[C@H](C)NC(=O)[C@H](CO)NC(=O)CNC(=O)[C@H](CCC(=O)O)NC(C)=O)CSSC[C@@H](C(=O)N(C)CC(=O)N[C@@H](CCC(=O)O)C(N)=O)NC(=O)[C@H](CCCNC(=N)N)NC(=O)[C@H](Cc2c[nH]cn2)NC(=O)[C@H](CCC(=O)O)NC(=O)CNC(=O)[C@H](Cc2c[nH]c3ccccc23)NC(=O)[C@H](CC(=O)O)NC(=O)[C@H](CCC(N)=O)NC(=O)[C@H](Cc2cn(C)c3ccccc23)NC1=O` [Compound 53] (Ac-EGSAFCI[Trp(1-Me)]QDWGEHRC[Sar]E-NH2; disulfide 6-16), the IC50 in data set [1] (setting [3]) was < 100 nM. Moreover, in data set [2], the “Solubility, Condition 1 Acetate pH 4” value was “− (denotes lack of solubility at the given condition, as UV absorbance at 340 nm exceeds 0.1 AU and/or it is visibly turbid or contains particles.)”; the “Solubility, Condition 2 Acetate pH 5” value was “− (denotes lack of solubility at the given condition, as UV absorbance at 340 nm exceeds 0.1 AU and/or it is visibly turbid or contains particles.)”; the “Solubility, Condition 3 Phosphate pH 6” value is “+ (denotes solubility at the given condition, as determined by UV absorbance being less than 0.1 AU at 340 nm and the sample being clear when manually inspected.)”; the “Solubility, Condition 4 Phosphate pH 7” value was “+ (denotes solubility at the given condition, as determined by UV absorbance being less than 0.1 AU at 340 nm and the sample being clear when manually inspected.)”. In data set [2], the “Solubility, Condition 5 Phosphate pH 7.5” value was “+ (denotes solubility at the given condition, as determined by UV absorbance being less than 0.1 AU at 340 nm and the sample being clear when manually inspected.)”. The affinity at Human C3, expressed as Kd, was 1.4 nM.

On to `CC[C@H](C)[C@H](NC(C)=O)C(=O)N[C@H]1CSSC[C@@H](C(=O)N[C@H](C(=O)N[C@@H](CCC(=O)O)C(=O)NCC(=O)N[C@@H](CCC(=O)O)C(N)=O)[C@@H](C)O)NC(=O)[C@H](CCCNC(=N)N)NC(=O)[C@H](Cc2c[nH]cn2)NC(=O)[C@H](CCC(=O)O)NC(=O)CNC(=O)[C@H](Cc2c[nH]c3ccccc23)NC(=O)[C@H](CC(=O)O)NC(=O)[C@H](CCC(N)=O)NC(=O)[C@H](Cc2c[nH]c3ccccc23)NC(=O)[C@H]([C@@H](C)CC)NC1=O` [Compound 24] (Ac-ICIWQDWGEHRCTEGE-NH2; disulfide 2-12), for which, in data set [1] (setting [3]), the half-inhibitory concentration (IC50) was < 100 nM. Moreover, in data set [1] (Table 4, valine 3 versus isoleucine 3 pairs, read-out: CP hemolysis IC50), the IC50 is 90 nM. Also, in data set [2], the “Solubility, Condition 1 Acetate pH 4” value is listed as “− (denotes lack of solubility at the given condition, as UV absorbance at 340 nm exceeds 0.1 AU and/or it is visibly turbid or contains particles.)”; the “Solubility, Condition 2 Acetate pH 5” value was “− (denotes lack of solubility at the given condition, as UV absorbance at 340 nm exceeds 0.1 AU and/or it is visibly turbid or contains particles.)”; the “Solubility, Condition 3 Phosphate pH 6” value was “− (denotes lack of solubility at the given condition, as UV absorbance at 340 nm exceeds 0.1 AU and/or it is visibly turbid or contains particles.)”; the “Solubility, Condition 4 Phosphate pH 7” value is “+ (denotes solubility at the given condition, as determined by UV absorbance being less than 0.1 AU at 340 nm and the sample being clear when manually inspected.)”. In addition, the “Solubility, Condition 5 Phosphate pH 7.5” value in data set [2] was “+ (denotes solubility at the given condition, as determined by UV absorbance being less than 0.1 AU at 340 nm and the sample being clear when manually inspected.)”. The “Solubility by visual inspection and absorbance, condition 1, 2 and 3” value in data set [2] (10 mg/mL, acetate pH 4.0, acetate pH 5.0, phosphate pH 6.0, all exceeding 0.1 AU threshold) was “cloudy”. For the same compound, in data set [2] (10 mg/mL, phosphate pH 7 and phosphate pH 7.5), the “Solubility by visual inspection and absorbance, condition 4 and 5” value is “good conditions for solubility”. Besides, the affinity at Human C3, expressed as Kd, was 28 nM.

As for `CC[C@H](C)[C@@H]1NC(=O)[C@@H](NC(=O)[C@H](Cc2ccccc2)NC(=O)[C@H](CCC(=O)O)NC(=O)[C@H](CO)NC(C)=O)CSSC[C@@H](C(=O)N(C)CC(=O)N[C@@H](CCC(=O)O)C(=O)NCC(=O)N[C@@H](CCC(=O)O)C(=O)NCCOCCOCC(=O)N[C@@H](CCC(=O)O)C(=O)N[C@@H](CO)C(=O)N[C@@H](CCCCNC(=O)CC[C@H](NC(=O)CNC(=O)CC[C@H](NC(=O)CCCCCCCCCCCCCCCCC(=O)O)C(=O)O)C(=O)O)C(N)=O)NC(=O)[C@H](CCCNC(=N)N)NC(=O)[C@H](Cc2c[nH]cn2)NC(=O)[C@H](CCC(=O)O)NC(=O)CNC(=O)[C@H](Cc2c[nH]c3ccccc23)NC(=O)[C@H](CC(=O)O)NC(=O)[C@H](CCC(N)=O)NC(=O)[C@H](Cc2cn(C)c3ccccc23)NC1=O` [Compound 140] (Ac-SEFCI[Trp(1-Me)]QDWGEHRC[Sar]EGE[AEEA]ESK([γGlu-Gly-γGlu-C18 diacid])-NH2; disulfide 4-14), the half-life in “in vivo” was 4.17 days. Moreover, the IC50 in data set [1] (setting [3]) is < 100 nM.

Broadly, the half-life is the time in which the quantity being followed falls by half. For orientation: IC50 means the concentration at which inhibition is half-maximal. One may read the Kd as the free concentration of one partner at which half of the binding sites on the other are occupied at equilibrium, for simple one-to-one binding. A higher Kd goes with weaker binding.
